# Reference: patent US20260242419A1, “A CYCLIC PEPTIDE FOR TRAPPING INTERLEUKIN-1 BETA” (Merck Sharp & Dohme LLC, priority 2023, published 2026)
# Non-standard residues stand in square brackets, D forms with d. Residues, ends and D or L forms follow the SMILES beside them. Phe(4-(cis-4-COOH-cHex)) = N[C@@H](Cc1ccc([C@H]2CC[C@@H](C(=O)O)CC2)cc1)C(=O)O; dPro(4R-(4-pyridylmethyl)) = O=C(O)[C@H]1C[C@@H](Cc2ccncc2)CN1; Trp(βS-Me,4-F) = C[C@@H](c1c[nH]c2cccc(F)c12)[C@H](N)C(=O)O; Bip(4'-COOH) = N[C@@H](Cc1ccc(-c2ccc(C(=O)O)cc2)cc1)C(=O)O; Ala(1-bicyclo(1.1.1)pentyl) = N[C@@H](CC12CC(C1)C2)C(=O)O; dPro(4R-Bzl(4-F)) = O=C(O)[C@H]1C[C@@H](Cc2ccc(F)cc2)CN1; Ala(pyrimidin-5-yl) = N[C@@H](Cc1cncnc1)C(=O)O; Phe(4-CONH2) = NC(=O)c1ccc(C[C@H](N)C(=O)O)cc1; Phe(4-COOH) = N[C@@H](Cc1ccc(C(=O)O)cc1)C(=O)O; Pro(cis-4-F) = O=C(O)[C@@H]1C[C@H](F)CN1; Ala(4-THP) = N[C@@H](CC1CCOCC1)C(=O)O; AEF = NCCOc1ccc(C[C@H](N)C(=O)O)cc1; cisHyp = O=C(O)[C@@H]1C[C@H](O)CN1; 4Pal = N[C@@H](Cc1ccncc1)C(=O)O; αMeD = C[C@](N)(CC(=O)O)C(=O)O; d(αMeS) = C[C@@](N)(CO)C(=O)O; NMeDab = CN[C@@H](CCN)C(=O)O; Dab = NCC[C@H](N)C(=O)O; Aib = CC(C)(N)C(=O)O; Sar = CNCC(=O)O
# Biological target: T1, IL-1β (Homo sapiens, UniProt P01584)
# T1 construct: purchased BioLegend 579404
# Experiment: IL-6 assay in MRC5 cells: inhibition of IL-1β induced IL-6 secretion (AlphaLISA)
# Type: cell-based
# Conditions: inhibition of IL-1β induced IL-6 secretion in MRC5 cells; read-out: MRC5 IC50
# Outline: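 Compound was pre-incubated 1 h at ambient temperature with recombinant human IL-1β at 2λ EC80 before adding human lung fibroblast MRC5 cells (3000/well) in EMEM with 0.025% BSA. After overnight culture at 37 °C, 5% CO2, secreted IL-6 in conditioned medium was measured by AlphaLISA; IC50 from 4-parameter logistic fits.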
# T1 sequence (P01584 117-269): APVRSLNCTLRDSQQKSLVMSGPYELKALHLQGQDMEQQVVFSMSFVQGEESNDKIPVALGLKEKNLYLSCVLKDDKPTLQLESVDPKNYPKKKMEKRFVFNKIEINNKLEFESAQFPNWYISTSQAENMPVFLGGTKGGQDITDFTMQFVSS
row,IC50 [nM],SMILES
1,0.029,"C[C@@H](c1c[nH]c2cccc(F)c12)[C@@H]1NC(=O)[C@@H]2C[C@H](O)CN2C(=O)CNC(=O)[C@H](Cc2ccc(C(=O)O)cc2)NC(=O)[C@H](Cc2ccncc2)NC(=O)[C@H](Cc2ccc(-c3ccc(C(=O)O)cc3)cc2)NC(=O)[C@H]2C[C@@H](Cc3ccncc3)CN2C(=O)CN(C)C(=O)[C@H](CCN)NC(=O)[C@H](CCC(N)=O)NC(=O)[C@H](CC2CCOCC2)NC(=O)[C@](C)(CC(=O)O)NC(=O)[C@H](Cc2c[nH]c3ccccc23)NC(=O)[C@H](CO)NC(=O)C(C)(C)NC1=O [Example 210] (cyclo([Bip(4'-COOH)][4Pal][Phe(4-COOH)]G[cisHyp][Trp(βS-Me,4-F)][Aib]SW[αMeD][Ala(4-THP)]Q[Dab][Sar][dPro(4R-(4-pyridylmethyl))]))"
2,0.021,"C[C@@H](c1c[nH]c2cccc(F)c12)[C@@H]1NC(=O)[C@@H]2C[C@H](F)CN2C(=O)CNC(=O)[C@H](Cc2ccc(C(=O)O)cc2)NC(=O)[C@H](CC23CC(C2)C3)NC(=O)[C@H](Cc2ccc(-c3ccc(C(=O)O)cc3)cc2)NC(=O)[C@H]2C[C@@H](Cc3ccncc3)CN2C(=O)CNC(=O)[C@H](CCN)NC(=O)[C@H](CCC(N)=O)NC(=O)[C@H](Cc2cncnc2)NC(=O)C(C)(C)NC(=O)[C@H](Cc2c[nH]c3ccccc23)NC(=O)[C@H](CO)NC(=O)C(C)(C)NC1=O [Example 44] (cyclo([Aib]SW[Aib][Ala(pyrimidin-5-yl)]Q[Dab]G[dPro(4R-(4-pyridylmethyl))][Bip(4'-COOH)][Ala(1-bicyclo(1.1.1)pentyl)][Phe(4-COOH)]G[Pro(cis-4-F)][Trp(βS-Me,4-F)]))"
3,0.019,"C[C@@H](c1c[nH]c2cccc(F)c12)[C@@H]1NC(=O)[C@@H]2C[C@H](F)CN2C(=O)CNC(=O)[C@H](Cc2ccc(C(=O)O)cc2)NC(=O)[C@H](Cc2ccncc2)NC(=O)[C@H](Cc2ccc(-c3ccc(C(=O)O)cc3)cc2)NC(=O)[C@H]2C[C@@H](Cc3ccncc3)CN2C(=O)CNC(=O)[C@H](CCN)NC(=O)[C@H](CCC(N)=O)NC(=O)[C@H](Cc2cncnc2)NC(=O)[C@@](C)(CO)NC(=O)[C@H](Cc2c[nH]c3ccccc23)NC(=O)[C@H](CO)NC(=O)C(C)(C)NC1=O [Example 111] (cyclo([Bip(4'-COOH)][4Pal][Phe(4-COOH)]G[Pro(cis-4-F)][Trp(βS-Me,4-F)][Aib]SW[d(αMeS)][Ala(pyrimidin-5-yl)]Q[Dab]G[dPro(4R-(4-pyridylmethyl))]))"

# Second part, the molecule before the results:
row,SMILES,IC50 [nM]
1,"C[C@@H](c1c[nH]c2cccc(F)c12)[C@@H]1NC(=O)[C@@H]2C[C@H](F)CN2C(=O)CNC(=O)[C@H](Cc2ccc(C(=O)O)cc2)NC(=O)[C@H](CC23CC(C2)C3)NC(=O)[C@H](Cc2ccc([C@H]3CC[C@@H](C(=O)O)CC3)cc2)NC(=O)[C@H]2C[C@@H](Cc3ccc(F)cc3)CN2C(=O)CNC(=O)[C@H](CCN)NC(=O)[C@H](CCC(N)=O)NC(=O)[C@H](CO)NC(=O)C(C)(C)NC(=O)[C@H](Cc2c[nH]c3ccccc23)NC(=O)[C@H](CO)NC(=O)C(C)(C)NC1=O [Example 106] (cyclo([Phe(4-(cis-4-COOH-cHex))][Ala(1-bicyclo(1.1.1)pentyl)][Phe(4-COOH)]G[Pro(cis-4-F)][Trp(βS-Me,4-F)][Aib]SW[Aib]SQ[Dab]G[dPro(4R-Bzl(4-F))]))",0.031
2,"CCO[C@H](C)[C@@H]1NC(=O)C(C)(C)NC(=O)[C@H](Cc2c[nH]c3ccccc23)NC(=O)[C@H](CO)NC(=O)C(C)(C)NC(=O)[C@H]([C@@H](C)c2c[nH]c3cccc(F)c23)NC(=O)[C@@H]2C[C@H](F)CN2C(=O)CNC(=O)[C@H](Cc2ccc(C(N)=O)cc2)NC(=O)[C@H](Cc2ccncc2)NC(=O)[C@H](Cc2ccc(OCCNC(C)=O)cc2)NC(=O)[C@H]2C[C@@H](Cc3ccncc3)CN2C(=O)CNC(=O)[C@H](CCN)N(C)C(=O)[C@H](CCC(N)=O)NC1=O [Example 382] (cyclo([AEF](Ac)[4Pal][Phe(4-CONH2)]G[Pro(cis-4-F)][Trp(βS-Me,4-F)][Aib]SW[Aib]T(Et)Q[NMeDab]G[dPro(4R-(4-pyridylmethyl))]))",0.048
3,"C[C@@H](c1c[nH]c2cccc(F)c12)[C@@H]1NC(=O)[C@@H]2C[C@H](F)CN2C(=O)CNC(=O)[C@H](Cc2ccc(C(=O)O)cc2)NC(=O)[C@H](Cc2ccncc2)NC(=O)[C@H](Cc2ccc(-c3ccc(C(=O)O)cc3)cc2)NC(=O)[C@H]2C[C@@H](Cc3ccc(F)cc3)CN2C(=O)CNC(=O)[C@H](CCCNC(=N)N)NC(=O)[C@H](CCC(N)=O)NC(=O)[C@H](Cc2ccccc2)NC(=O)C(C)(C)NC(=O)[C@H](Cc2c[nH]c3ccccc23)NC(=O)[C@H](CCC(=O)O)NC(=O)C(C)(C)NC1=O [Example 35] (cyclo([Bip(4'-COOH)][4Pal][Phe(4-COOH)]G[Pro(cis-4-F)][Trp(βS-Me,4-F)][Aib]EW[Aib]FQRG[dPro(4R-Bzl(4-F))]))",0.049
4,"C[C@@H](c1c[nH]c2cccc(F)c12)[C@@H]1NC(=O)[C@@H]2C[C@H](F)CN2C(=O)CNC(=O)[C@H](Cc2ccc(C(=O)O)cc2)NC(=O)[C@H](CC23CC(C2)C3)NC(=O)[C@H](Cc2ccc(-c3ccc(C(=O)O)cc3)cc2)NC(=O)[C@H]2C[C@@H](Cc3ccc(F)cc3)CN2C(=O)CNC(=O)[C@H](CCN)NC(=O)[C@H](CCC(N)=O)NC(=O)[C@H](Cc2cncnc2)NC(=O)C(C)(C)NC(=O)[C@H](Cc2c[nH]c3ccccc23)NC(=O)[C@H](CCC(=O)O)NC(=O)C(C)(C)NC1=O [Example 13] (cyclo([Bip(4'-COOH)][Ala(1-bicyclo(1.1.1)pentyl)][Phe(4-COOH)]G[Pro(cis-4-F)][Trp(βS-Me,4-F)][Aib]EW[Aib][Ala(pyrimidin-5-yl)]Q[Dab]G[dPro(4R-Bzl(4-F))]))",0.022
